Earlier results, collected in US20090041835A1, “METHOD OF INHIBITING LEAKAGE OF DRUG ENCAPSULATED IN LIPOSOMES” (KYOWA HAKKO KOGYO CO., LTD., priority 1999, published 2009).

Conditions: LUVs of 190 nm average particle size, pH gradient using ammonium sulfate; 50% mouse serum at 37° C.

- leakage of drug out of the LUVs: rapidly leaked out
Compound: O=C(O)c1cn(C2CC2)c2cc(N3CCNCC3)c(F)cc2c1=O [ciprofloxacin]
